Consider two compounds from patent US6551993B1, “Partial agonists at the glycine modulatory site of the NMDA receptor for treating cognitive dysfunction” (Thomas Jefferson University, priority 1999, dated 2003).

Entries after “also recorded” stand apart in the source; their conditions may differ.

Assay type in all cases: in vivo, cynomolgus monkeys (Macaca fascicularis)
Data set [1] relates to chronic low dose MPTP-treated monkeys. Kind of data set: motor functioning during visual discrimination testing.
The test system is the same in data set [2]. In words: variable delayed response (VDR) task. The source says:
(§1) Four adult male cynomolgus monkeys (Macaca fascicularis) weighing 5.0-8.0 kg at the beginning of testing were used. All animals had prior behavioral testing experience and had stable cognitive deficits as a result of prior MPTP administration. These animals had previously been used in other pharmacological studies (Schneider J S, Tinker J P, Van Velson M, Menzaghi F, Lloyd G K. Nicotinic acetylcholine receptor agonist SIB-1508Y improves cognitive functioning in chronic low dose MPTP-treated monkeys. J Pharmacol Exp Ther 290: In Press, 1999) but had received no drug treatments for at least 6 mos. prior to the start of this study. This study was approved by the Institutional Animal Care and Use Committee at Thomas Jefferson University and performed in accordance with the NIH Guide for the Care and Use of Laboratory Animals.
(§2) Three of the four animals were tested in a modified Wisconsin General Test Apparatus (WGTA) (Schneider and Kovelowski, 1990); one animal performed computer automated tasks while seated in front of a touch sensitive computer monitor located in a darkened sound-attenuated cubicle. All monkeys performed a spatial delayed response (DR) task, a variable delayed response task (VDR) and a visual discrimination (VD) task.
(§3) The monkeys that performed in the WGTA sat in a restraining chair situated in a sound-attenuating chamber with background masking noise, behind an opaque screen that when raised, allowed access to a sliding tray. The tray contained recessed food wells and identical sliding red Plexiglas covers that served as stimulus plaques that could be displaced by the animal to obtain rewards (raisins, dried fruit, marshmallows). The monkeys were trained to retrieve food from one of the wells after observing the experimenter bait a well. Right and left wells were baited in a balanced order. Each daily session consisted of 30 trials. For VDR testing, five different delay lengths (2, 5, 10, 20 and 30 secs.) were randomly distributed in blocks of trials over the 40 trials that made up a daily testing session. For VD testing, monkeys were trained to discriminate between two patterns (a cross and a horizontal bar) on otherwise identical Plexiglas covers. The position of the positive stimulus (cross) over the left or right food well varied pseudorandomly. The cover had to be displaced in order to retrieve reward from the recessed food well beneath the cover. A test session consisted of 30 trials. Animals were food deprived overnight prior to testing the next day.
(§4) The monkey that performed the computer automated tasks sat in a restraining chair situated in a sound-attenuating chamber with background masking noise, and faced a touch sensitive computer screen with a lever located beneath it. The animal initiated a DR or VDR trial by holding down the lever for one to three seconds. This caused the cue, a filled white circle one inch in diameter, to appear on the right or left side of the screen for two seconds. The cue was then extinguished for a delay period (five seconds for DR; 2, 5, 10, 20, and 30 secs. for VDR) and then identical left and right choice stimuli (filled red circles, one inch in diameter) were presented. The monkey was rewarded with a fruit flavored drink from an automatic dispenser if it touched the response light located on the same side as where the cue appeared. Side of cue presentation was counter-balanced and left/right rewards were distributed pseudorandomly over the 30 trials (40 trials for VDR) that made up a daily testing session. This animal was tested in the morning and fluid deprived overnight prior to testing.
(§5) Animals initially received low doses of MPTP for periods of up to 178 days until stable cognitive deficits (consistent performance deficits of at least 15% on DR) were observed (Schneider et al., 1999). These animals had not received any MPTP for at least 9 months prior to the start of this study. […]

For data set [3] the test system is unchanged. Kind of data set: visual discrimination (VD) task.
Source text: as §1, §2
as §3, with “A test session consisted of 30 trials. Animals were food deprived overnight prior to testing the next day.” left out
Animals initially received low doses of MPTP for periods of up to 178 days until stable cognitive deficits (consistent performance deficits of at least 15% on DR) were observed (Schneider et al., 1999). […] Drug effects were determined for D-cycloserine and MK-801 (Research Biochemicals International, Natick, M A) at doses of 100, 320, 1,000, and 8,000 μg/kg and 10, 20 or 32 μg/kg, respectively. […]

For data set [4] the test system is unchanged. In words: spatial delayed response (DR) task.
Source text: as §1, §2, §3, §4, §5

Turning to `N[C@@H]1CONC1=O` [D-cycloserine], the motor functioning entry in data set [1] (8,000 μg/kg i.m.) is reported as “did not significantly impair motor functioning”. Also, the VDR performance result in data set [2] (100 μg/kg i.m., all delays (2, 5, 10, 20, 30 sec)) is given as “had no effects”; in data set [2] (320 μg/kg i.m., at 2, 5, and 20 sec. delays), “significantly improved performance”; in data set [2] (1,000 μg/kg i.m., at 2, 5, and 10 sec delays) it was “significantly improved performance”; in data set [2] (8,000 μg/kg i.m.) it was “neither improvement nor further disruption”; in data set [2] (30 sec. delay, any dose), “None of the doses of D-cycloserine improved performance”; in data set [2] (best (most facilitating) dose for each animal vs. saline, FIG. 1B), “significantly improved performance at all but the longest delay”. Moreover, the VD performance result in data set [3] (8,000 μg/kg i.m., all animals, p<0.01 vs. saline, FIG. 2) is reported as “significantly disrupted; also recorded: significantly impaired; also recorded: deficits induced in VD performance”; in data set [3] (100 to 1,000 μg/kg i.m.), “had no effects”. Moreover, the “deficits in VD performance” value in data set [3] (low doses (10, 32 or 100 μg/kg)) is given as “not with low doses”. Also, the DR performance entry in data set [4] (100 μg/kg i.m., approx. 30 min before test, vs. saline) was “Neither the low (100 μg/kg) nor high (8,000 μg/kg) doses of D-cycloserine had any effect”; in data set [4] (320 μg/kg i.m., approx. 30 min before test, vs. saline (t=6.73, p<0.01)) it was “significantly improving task performance”; in data set [4] (1,000 μg/kg i.m., approx. 30 min before test, vs. saline (t=3.76, p<0.05)), “significantly improving task performance”; in data set [4] (8,000 μg/kg i.m., approx. 30 min before test, vs. saline), “Neither the low (100 μg/kg) nor high (8,000 μg/kg) doses of D-cycloserine had any effect; also recorded: neither improvement nor further disruption”. Also, the “MPTP-induced DR performance deficit” value in data set [4] (dose response 100 to 1000 μg/kg i.m., 4 animals, FIG. 1A) was “at least partially corrected”.
`C[C@]12N[C@H](Cc3ccccc31)c1ccccc12` [MK-801]: in data set [1] (10-32 μg/kg i.m.), the motor functioning result is recorded as “did not significantly impair motor functioning”. Moreover, the VD performance result in data set [3] (10-32 μg/kg i.m., all animals, p<0.01 vs. saline, FIG. 2) is recorded as “significantly disrupted; also recorded: significant impairment”. In data set [4] (10-32 μg/kg i.m., vs. saline), the DR performance result is on record as “had no effects”.
